Measurements: US10266838B2, “Methods for enhancing root growth of plants” (Academia Sinica, priority 2013, dated 2019)

Tests used:
rice half seeds = experiment: rice half-seed transient expression assay, GUS activity; type: cell-based; conditions: rice half seeds transfected by particle bombardment, with vs without 10 μM ABA for 16 h
Procedure: (§1) (A) Three copies of ABRC321 confer high ABA inducibility in a rice half-seed transient expression assay. Rice half seeds were transfected with plasmids shown in FIG. 1 by particle bombardment, and incubated with (+) or without (−) 10 μM ABA for 16 h, and GUS activity was analyzed. (B) Three copies of ABRC321 confer high ABA inducibility in leaves and roots in transgenic rice. Constructs shown in FIG. 1 were introduced into the rice genome. Leaves and roots of 10-day-old T2 seedlings of four transgenic lines were collected and incubated in water with (+) or without (−) 10 μM ABA for 16 h, and GUS activity was analyzed. Numbers above bars indicate fold induction of GUS activity by ABA. Error bars represent SD (n=3).
Two 56-bp complementary oligonucleotides, containing the CE3 and A2 elements from the HVA1 promoter and the CE1 element from the HVA22 promoter (Shen Q, Zhang P, & Ho T H (1996) Plant Cell 8(7):1107-1119) and restriction sites KpnI, XhoI and XbaI were synthesized, annealed, and designated as ABRC321 (FIG. 1A). ABRC321 was self-ligated in two or three copies in correct orientations. For expression of GUS under the control of ABRC321, 1-3 copies ABRC321 was inserted into the XbaI site in MP64, so that the ABRC321 was fused upstream of the barley Amy64 minimal promoter, generating constructs 1xABRC321-GUS, 2x-ABRC321-GUS and 3xABRC321-GUS (FIG. 1(B)). For expression of HVA1 under the control of 3xABRC321, GUS cDNA in construct 3xABRC321-GUS was replaced with HVA1 cDNA, generating construct 3xABRC321-HVA1 (FIG. 1(C)) (SEQ ID NO: 6).
In this study, we used a […] promoter, ABRC321, to express recombinant HVA1 (rHVA1) in plants. […] ABRC321 was generated by fusion of coupling element CE3 and ABRE2 (A2) from the HVA1 ABRC3 and coupling element CE1 from the HVA22 ABRC1 (Shen Q, Zhang P, & Ho T H (1996) Plant Cell 8(7):1107-1119). The reporter gene GUS was fused downstream of 1-3 tandem repeats of ABRC321 and the Amy64 minimal promoter.

Tainung 67 seedlings = experiment: root growth of rice seedlings on half-strength MS medium containing ABA and/or NPA; type: in vivo, Oryza sativa L. cv Tainung 67; design: lateral root morphology: dose or concentration left out as unconfirmed
Excerpt: Three-day-old seedlings of Tainung 67 (T) transgenic lines were transferred to half-strength MS medium without sugar but containing ABA or sorbitol, and root morphology was examined. (A) Morphology of various branch roots.
Three-day-old seedlings of Tainung 67 (T) transgenic lines that containing seminal roots only were transferred to half-strength MS (½) medium without sugar but containing ABA and/or NPA for 11 days, and root morphology was examined. […] The dots indicate starting points of root growth after transferring to MS medium containing ABA and/or NPA.
Rice cultivars Oryza sativa L. cv Tainung 67 and Oryza sativa L. cv Kitaake were used for all experiments. Plasmid was introduced into Agrobacerium tumefaciens strain EHA101 and rice transformation was performed as described (Chen P-W, et al. (2002) J Biol Chem 277:13641-13649). Homozygous transgenic lines were used in all experiments. For observation of root growth, transgenic rice seeds were germinated on the surface of half-strength MS medium without sugar but with or without ABA. For hydroponic culture, Yoshida solution was used. Seedlings were normally grown in 28′C incubator with 12 hr daily light.
Rice branch roots could be classified into four types: seminal root, also called radical, the first root grows during germination; crown roots, roots emerge from the node of coleoptile; adventitious roots, roots differentiate from the nodes of main stem and tillers, lateral roots, roots branch from above three types of roots and can bear additional large or small lateral roots until the fifth order of branching. The number of each type of root was measured by simple counting. Root length was measured, number of roots was counted, and lateral root density was determined by dividing lateral root number with root length. Error bars represent SD (n=12). Significance levels: *P<0.05, **P<0.01, ***P<0.001.
In medium without any treatment, newly grown crown and lateral roots were more abundant in Tainung 67 transgenic lines than in WT (FIG. 12(A)). […] In the presence of NPA, growth of all types of roots was inhibited (FIG. 12(C)).

PIN genes = experiment: quantitative real-time RT-PCR of auxin transporter genes in roots; type: in vivo, rice; conditions: Yoshida solution with or without 0.2 μM ABA for 14 days, root RNA
Procedure: Four-day-old seedlings of Tainung 67 (T) transgenic lines were germinated on MS medium for four days and transfer to full strength Yoshida solution with or without 0.2 μM ABA for 14 days. Total RNA was extracted from roots and subjected to quantitative real-time RT-PCR.
To determine whether the promotion of root growth by HVA1 in transgenic rice involves the auxin (IAA)-dependent pathway, the expression of various genes involved in auxin transport and signaling were determined. […] The rice PIN family is encoded by 12 genes, with expression of each being spatially and temporally regulated (Wang J R, et al. (2009) Mol Plant 2(4):823-831).

[1] = system: leaves and roots in transgenic rice; experiment: GUS activity in leaves and roots of stably transformed transgenic rice; type: in vivo; conditions: 10-day-old T2 seedlings, 10 μM ABA for 16 h, compared among all constructs
Procedure: as §1
All ABRC321:GUS constructs were also used for rice stable transformation.

[2] = 0.2 μM ABA plus 1 μM NPA, 11 days

With “1xABRC321: synthetic ABA-inducible promoter, one copy of ABRC321 (CE3, A2, CE1 elements) fused upstream of Amy64 minimal promoter and GUS (DNA GGTACCGCAACGCGTGTCCTCCCTACGTGGCGGCTCGAGATTGCCACCGGTCTAGA; synthetic promoter element in GUS reporter construct, further chemistry not given here)” the “induction of GUS activity by ABA” value (rice half seeds) was 19 fold.

In the case of `O=C(O)c1ccccc1C(=O)Nc1cccc2ccccc12` [NPA, N-(1-naphthyl) phtalamic acid], the “growth of crown roots and lateral roots” value (Tainung 67 seedlings; [2]) is reported as “also inhibited”, the “growth of seminal roots” value (Tainung 67 seedlings; [2]) is reported as “continued to grow” and the “growth of all types of roots” value (Tainung 67 seedlings; 1 μM NPA only, 11 days, WT and transgenic lines) is reported as “inhibited”.

`CC1=CC(=O)CC(C)(C)[C@@]1(O)/C=C/C(C)=C\C(=O)O` [ABA, abscisic acid] was tested, and the “expression of several PIN genes” value (PIN genes) was “up-regulated”, the “root length and lateral root density” value (Tainung 67 seedlings; ABA concentration of 0.1 μM, 14 days) was “significantly increased” and the root density (Tainung 67 seedlings; ABA concentrations higher than 0.5 M, 14 days) was “decreased”. The lateral root morphology (Tainung 67 seedlings; ABA concentrations, 14 days) was “shorter and thicker”.

B1: 2xABRC321: synthetic ABA-inducible promoter, two tandem copies of ABRC321 driving GUS (nucleic acid)
DNA: GGTACCGCAACGCGTGTCCTCCCTACGTGGCGGCTCGAGATTGCCACCGGGGTACCGCAACGCGTGTCCTCCCTACGTGGCGGCTCGAGATTGCCACCGGTCTAGA
modifications: synthetic promoter element in GUS reporter construct, further chemistry not given here
With B1 the “induction of GUS activity by ABA” value (rice half seeds) was 20 fold.

B2: 3xABRC321: synthetic ABA-inducible promoter, three tandem copies of ABRC321 driving GUS (nucleic acid)
DNA: GGTACCGCAACGCGTGTCCTCCCTACGTGGCGGCTCGAGATTGCCACCGGGGTACCGCAACGCGTGTCCTCCCTACGTGGCGGCTCGAGATTGCCACCGGGGTACCGCAACGCGTGTCCTCCCTACGTGGCGGCTCGAGATTGCCACCGGTCTAGA
modifications: Synthetic prompter 3XABRC321
notes: synthetic ABA-inducible promoter, three tandem copies of ABRC321 driving GUS
B2 was tested, and the “ABA induction of GUS activity in leaves and roots” value [1] was “most highly induced by ABA among all constructs” and the “induction of GUS activity by ABA” value (rice half seeds) was 33 fold.
